Experimental data reported in US9333191B2, “Mast cell stabilizers to prevent or treat laminitis” (WILLOWCROFT PHARM INC., priority 2004, dated 2016).
“Also recorded” adds a separate entry of the source. Structures can show the parent of a compound that is named as a salt.

Tests used:
Ovine Laminitis = test: Histological evaluation of treatment in an acute model of ovine laminitis (lactic acid infusion + Compound 48/80); format: in vivo; conditions: Group 2: Nedocromil sodium (42 mg/kg) + lactic acid infusion + Compound 48/80 (1 mg/kg); anesthetized sheep; hematoxylin and eosin sections
Procedure: Laminitis can be induced in vivo through systemic acidosis. This study initiated laminitis in anesthetized sheep by inducing acidosis for the purpose of measuring the level of inflammation in the hoof vascular bed associated with initiation of laminitis. Adult Suffolk sheep (at least 6 months old) weighing at least 60 kg were obtained for the study. Animals were housed and research procedures were performed according to the standards provided in the Guide for the Care and Use of Laboratory Animals, 7th Edition, Revised 1996, National Academy Press, Washington, DC. During acclimation, sheep were pasture-housed with access to feed, water, and shelter. Sheep were fed a standard diet of hay and alfalfa in addition to pasture feed. One day prior to surgery, each animal was transferred to an indoor facility with single animal runs. […] The runs had automatic watering devices and animals were fed in steel feeders. Animals were acclimated for a minimum of one day prior to surgery. Sheep were fasted approximately 16 hours overnight on the day prior to surgery. Two sheep served as terminal controls after prolonged infusion of lactic acid and the mast cell activator 48/80. Systemic blood pH was lowered to approximately […], the animals euthanized, and the hooves observed histopathologically. […]

[1] = tested on: Rattus norvegicus basophilic leukemia cells; test: Lactic acid-stimulated histamine release from basophilic leukemia cells (GC-MS); format: cell-based
Procedure: The immortal cell culture line of Rattus norvegicus basophilic leukemia cells was subcultured and incubated at 37° C. overnight. […] After incubation, 50 μL of the supernatant was removed from the cells and stored at −80° C. or derivatized for GC-MS analysis.
The supernatant was mixed with 135 μl of an acetone reaction solution (ethanol, triethylamine, and 9-methylanthracene) in a 0.5 ml microtube. After mixing for 10 seconds, 55 μl of a chloroform derivatization solution containing […] ethylchloroformate was added and mixed for an additional 10 seconds. Then, 350 μL purified water was added and the two phases allowed to separate for 60 seconds. The organic phase was aspirated and placed into a 2 mL autosampler amber vial with glass inserts and dried with anhydrous sodium sulfate before being capped with GC vial snap caps.
The organic phase samples were dried and analyzed on an Agilent GC/MS 6890/5975C system with MS Chem Station software. Gas chromatography was carried out using a fused silica DB-WAX precolumn (0.2 m×0.25 mm, dF=0.25 μm), and a fused silica DB-WAX separation column (4 m×0.25 mm, dF=0.25 μm). Ultra high purity He was used as the carrier gas.
The GC parameters were set as follows: injection time was set to 5 μl using the splitless mode. After 120 seconds the split valve was opened with a 40 mL/minute split flow and front inlet temperature was held at 150° C. The oven temperature was ramped, starting at 60° C. for 2 minutes then increased at 50° C./minute to 160° C., then increased at 20° C./minute to 260° C. and held for 2.5 minutes. The MS detector was maintained at 300° C., with a solvent delay of 7 minutes, ion m/z 192 at 7.0-8.7 minutes, dwell time 100 ms, low-mass resolution; ion m/z 166, m/z 154 at 8.7-11.5 minutes, dwell time per ion 100 ms, low-mass resolution. […]

Bovine Laminitis = format: in vivo, Holstein calves
Text: To test the effectiveness of nedocromil sodium to prevent laminitis in cattle, 4 Holstein calves weighing between 325 and 350 pounds were selected for the study and treated as shown in Table 11.
Starting with day one through day four, and continuing day six through day seven, calves 1 and 2 received Nedocromil sodium pretreatment (1.5 grams infused through the jugular vein) while calves 3 and 4 received no treatment. On each of days one through four and days six through seven, blood samples were obtained from all four calves. No treatments were administered on days eight through ten. On day eleven, calves 1 and 2 were administered 2 grams of Nedocromil sodium. Shortly thereafter, 3.5 pounds of corn starch and 1.5 pounds of sugar mixed in water along with 6×10^11 lactic acid producing and histamine producing organisms were administered to all four calves by releasing the mixture into the rumen of each animal. The process of administering the carbohydrate plus lactic acid producing and histamine producing organisms is known to induce acidosis in cattle.
The calves' behavior was observed, blood samples taken, and temperatures measured over the next 72 hours.

In the case of `CCCc1c2oc(C(=O)O)cc(=O)c2cc2c(=O)cc(C(=O)O)n(CC)c12` [Nedocromil sodium, disodium salt of 9-ethyl-6,9-dihydro-4,6-dioxo-10-propyl-4H-pyrano[3,2-g]-quinoline-2,8-dicarboxylic acid], the “Findings (histology of hoof sections, inflammation)” value (Ovine Laminitis) is reported as “No inflammation was observed; also recorded: effectively reduced short-term inflammation; also recorded: No significant findings”, the “Histamine Levels” value ([1]; Lactic acid + 1 μl nedocromil sodium) is reported as 15.810 and the “Histamine Levels” value ([1]; Lactic acid + 2 μl nedocromil sodium) is reported as 14.470. For the same compound, the “Inhibition of histamine release” value ([1]; lactic acid-stimulated cells, increasing levels of nedocromil sodium) was “effective in inhibiting histamine release”, the “Toxicity and/or side effects” value (Bovine Laminitis; bovine, in vivo) was “lack of toxicity and/or side effects” and the “Protection from lactic acidosis” value (Bovine Laminitis; calves 1 and 2, nedocromil sodium 1.5 g via jugular vein on days 1-4 and 6-7, 2 g on day 11 before carbohydrate mixture, observed 72 hours) was “protected from lactic acidosis”.
